From US20110015068A1, “Herbicidal Compositions Comprising Pyroxasulfone V” (BASF SE, priority 2008, published 2011)
Like-named read-outs stand apart in the source and are kept apart here.

Tests used:
Alopecurus myosuroides = test: post-emergence greenhouse test, ALOMY; assay type: in vivo; settings: for observed activity in % destruction: Table 3; for inhibition at 13 g/ha / inhibition at 100 g/ha: Alopecurus myosuroides, read-out: observed % activity; for inhibition at 13 g/ha: 13 g ai/ha
Excerpt: (§1) For the post-emergence treatment, the test plants were first grown to a height of 3 to 20 cm, depending on the plant habit, and only then treated. Here, the herbicidal compositions were suspended or emulsified in water as distribution medium and sprayed using finely distributing nozzles.
(§2) The respective herbicides A and/or safener were formulated as 10% by weight strength suspension concentrate and introduced to the spray liquor with the amount of solvent system used for applying the active compound. Herbicide B and/or safener were used as commercially available formulations and introduced to the spray liquor with the amount of solvent system used for applying the active compound. In the examples, the solvent used was water.
(§3) The test period extended over 21 days. During this time, the plants were tended, and their response to the treatments with active compound was evaluated.
(§4) The evaluation for the damage caused by the chemical compositions was carried out using a scale from 0 to 100%, compared to the untreated control plants. Here, 0 means no damage and 100 means complete destruction of the plants.

Polygonum convolvulus = test: post-emergence greenhouse test, POLCO; assay type: in vivo; settings: for inhibition at 25 g/ha / inhibition at 50 g/ha / inhibition at 100 g/ha: Fallopia convolvulus, read-out: observed % activity; for inhibition at 25 g/ha: 25 g ai/ha; for inhibition at 50 g/ha: 50 g ai/ha; for inhibition at 100 g/ha: 100 g ai/ha
Excerpt: as §1, §2, §3, §4

Xanthium strumarium = test: post-emergence greenhouse test, XANST; assay type: in vivo; settings: Xanthium strumarium, read-out: observed % activity; for inhibition at 13 g/ha: 13 g ai/ha; for inhibition at 25 g/ha: 25 g ai/ha; for inhibition at 100 g/ha: 100 g ai/ha
Excerpt: as §1, §2, §3, §4

Setaria viridis = test: post-emergence greenhouse test, SETVI; assay type: in vivo; settings: 25 g ai/ha, 20 DAT, Table 3
Excerpt: as §1, §2, §3, §4

Avena fatua = test: post-emergence greenhouse test, AVEFA; assay type: in vivo; settings: 50 g ai/ha, 20 DAT, Table 3
Excerpt: as §1, §2, §3, §4

Setaria lutescens = test: post-emergence greenhouse test, SETLU; assay type: in vivo; settings: Setaria pumila, 13 g ai/ha, read-out: observed % activity
Excerpt: as §1, §2, §3, §4

Solanum nigrum = test: post-emergence greenhouse test, SOLNI; assay type: in vivo; settings: Solanum nigrum, read-out: observed % activity; for inhibition at 13 g/ha: 13 g ai/ha; for inhibition at 100 g/ha: 100 g ai/ha
Excerpt: as §1, §2, §3, §4

Sorghum halepense [1] = test: pre-emergence greenhouse test, SORHA; assay type: in vivo; settings: Sorghum halepense, 25 g ai/ha, read-out: observed % activity
Excerpt: (§5) For the pre-emergence treatment, directly after sowing the active compounds, which had been suspended or emulsified in water, were applied by means of finely distributed nozzles. The containers were irrigated gently to promote germination and growth and subsequently covered with transparent plastic hoods until plant had rooted. This cover caused uniform germination of the tests plants, unless this was adversely affected by active compounds.
as §2, §3, §4

Chenopodium album [2] = test: post-emergence greenhouse test, CHEAL; assay type: in vivo; settings: for inhibition at 13 g/ha / inhibition at 50 g/ha: Chenopodium album, read-out: observed % activity; for inhibition at 13 g/ha: 13 g ai/ha; for inhibition at 50 g/ha: 50 g ai/ha
Excerpt: as §1, §2, §3, §4

Galium aparine = test: pre-emergence greenhouse test, GALAP; assay type: in vivo; settings: Galium aparine, read-out: observed % activity; for inhibition at 25 g/ha: 25 g ai/ha; for inhibition at 50 g/ha: 50 g ai/ha
Excerpt: as §5, §2, §3, §4

Kochia scoparia = test: post-emergence greenhouse test, KCHSC; assay type: in vivo; settings: Bassia scoparia, read-out: observed % activity; for inhibition at 13 g/ha: 13 g ai/ha; for inhibition at 100 g/ha: 100 g ai/ha
Excerpt: as §1, §2, §3, §4

Sorghum halepense [3] = test: post-emergence greenhouse test, SORHA; assay type: in vivo; settings: Sorghum halepense, 50 g ai/ha, read-out: observed % activity
Excerpt: as §1, §2, §3, §4

Matricaria inermis [4] = test: post-emergence greenhouse test, MATIN; assay type: in vivo; settings: 20 DAT
Excerpt: as §1, §2, §3, §4

Setaria faberii [5] = test: pre-emergence greenhouse test, SETFA; assay type: in vivo; settings: Setaria faberi, read-out: observed % activity; for inhibition at 25 g/ha: 25 g ai/ha; for inhibition at 50 g/ha: 50 g ai/ha
Excerpt: as §5, §2, §3, §4

Chenopodium album [6] = test: pre-emergence greenhouse test, CHEAL; assay type: in vivo; settings: Chenopodium album, read-out: observed % activity; for inhibition at 25 g/ha: 25 g ai/ha; for inhibition at 50 g/ha: 50 g ai/ha
Excerpt: as §5, §2, §3, §4

harmful plants = settings: known from Y. Yamaji et al., 2006; cited from earlier work
Ambrosia artemisifolia = test: pre-emergence greenhouse test, AMBEL; assay type: in vivo; settings: Ambrosia, read-out: observed % activity; for inhibition at 25 g/ha: 25 g ai/ha; for inhibition at 50 g/ha: 50 g ai/ha
Excerpt: as §5, §2, §3, §4

Setaria faberii [7] = test: post-emergence greenhouse test, SETFA; assay type: in vivo; settings: 50 g ai/ha, 20 DAT
Excerpt: as §1, §2, §3, §4

Bromus inermis = test: pre-emergence greenhouse test, BROIN; assay type: in vivo; settings: Bromus inermis, 25 g ai/ha, read-out: observed % activity
Excerpt: as §5, §2, §3, §4

Ipomoea purpurea = test: pre-emergence greenhouse test, PHBPU; assay type: in vivo; settings: Ipomoea purpurea, read-out: observed % activity; for inhibition at 25 g/ha: 25 g ai/ha; for inhibition at 50 g/ha: 50 g ai/ha
Excerpt: as §5, §2, §3, §4

Matricaria inermis [8] = test: pre-emergence greenhouse test, MATIN; assay type: in vivo; settings: Matricaria, read-out: observed % activity; for inhibition at 25 g/ha: 25 g ai/ha; for inhibition at 50 g/ha: 50 g ai/ha
Excerpt: as §5, §2, §3, §4

Cn1nc(C(F)(F)F)c(CS(=O)(=O)C2=NOC(C)(C)C2)c1OC(F)F [pyroxasulfone, 3-[5-(difluoromethoxy)-1-methyl-3-(trifluoromethyl)pyrazol-4-ylmethylsulfonyl]-4,5-dihydro-5,5-dimethyl-1,2-oxazole]
observed activity in % destruction (Alopecurus myosuroides; 50 g ai/ha, 20 DAT): 55%
observed activity in % destruction (Alopecurus myosuroides; 100 g ai/ha, 20 DAT): 80%
inhibition at 13 g/ha (Alopecurus myosuroides; 192 h, 8 DAT): 0%
inhibition at 100 g/ha (Alopecurus myosuroides; 192 h, 100 g ai/ha, 8 DAT): 40%
inhibition at 13 g/ha (Alopecurus myosuroides; 480 h, 20 DAT): 15%
inhibition at 100 g/ha (Alopecurus myosuroides; 480 h, 100 g ai/ha, 20 DAT): 75%
observed activity in % destruction (Polygonum convolvulus; 12.5 g ai/ha, 20 DAT, Table 3): 35%
inhibition at 25 g/ha (Polygonum convolvulus; 192 h, 8 DAT): 30%
inhibition at 50 g/ha (Polygonum convolvulus; 192 h, 8 DAT): 50%
inhibition at 100 g/ha (Polygonum convolvulus; 192 h, 8 DAT): 50%
inhibition at 25 g/ha (Polygonum convolvulus; 480 h, 20 DAT): 50%
inhibition at 50 g/ha (Polygonum convolvulus; 480 h, 20 DAT): 50%
inhibition at 100 g/ha (Polygonum convolvulus; 480 h, 20 DAT): 55%
inhibition at 13 g/ha (Xanthium strumarium; 192 h, 8 DAT): 0%
inhibition at 25 g/ha (Xanthium strumarium; 192 h, 8 DAT): 20%
inhibition at 100 g/ha (Xanthium strumarium; 192 h, 8 DAT): 25%
inhibition at 13 g/ha (Xanthium strumarium; 480 h, 20 DAT): 0%
inhibition at 25 g/ha (Xanthium strumarium; 480 h, 20 DAT): 25%
inhibition at 100 g/ha (Xanthium strumarium; 480 h, 20 DAT): 55%
observed activity in % destruction (Setaria viridis): 75%
observed activity in % destruction (Avena fatua): 75%
inhibition at 13 g/ha (Setaria lutescens; 192 h, 8 DAT): 0%
inhibition at 13 g/ha (Setaria lutescens; 480 h, 20 DAT): 65%
inhibition at 13 g/ha (Solanum nigrum; 192 h, 8 DAT): 75%
inhibition at 100 g/ha (Solanum nigrum; 192 h, 8 DAT): 75%
inhibition at 13 g/ha (Solanum nigrum; 480 h, 20 DAT): 75%
inhibition at 100 g/ha (Solanum nigrum; 480 h, 20 DAT): 90%
inhibition at 25 g/ha (Sorghum halepense [1]; 192 h, 8 DAT): 75%
inhibition at 25 g/ha (Sorghum halepense [1]; 480 h, 20 DAT): 95%
observed activity in % destruction (Chenopodium album [2]; 12.5 g ai/ha, 20 DAT, Table 3): 35%
observed activity in % destruction (Chenopodium album [2]; 25 g ai/ha, 20 DAT, Table 4): 45%
inhibition at 13 g/ha (Chenopodium album [2]; 192 h, 8 DAT): 35%
inhibition at 50 g/ha (Chenopodium album [2]; 192 h, 8 DAT): 60%
inhibition at 13 g/ha (Chenopodium album [2]; 480 h, 20 DAT): 25%
inhibition at 50 g/ha (Chenopodium album [2]; 480 h, 20 DAT): 65%
inhibition at 25 g/ha (Galium aparine; 192 h, 8 DAT): 50%
inhibition at 50 g/ha (Galium aparine; 192 h, 8 DAT): 70%
inhibition at 25 g/ha (Galium aparine; 480 h, 20 DAT): 80%
inhibition at 50 g/ha (Galium aparine; 480 h, 20 DAT): 90%
inhibition at 13 g/ha (Kochia scoparia; 192 h, 8 DAT): 60%
inhibition at 100 g/ha (Kochia scoparia; 192 h, 8 DAT): 60%
inhibition at 13 g/ha (Kochia scoparia; 480 h, 20 DAT): 50%
inhibition at 100 g/ha (Kochia scoparia; 480 h, 20 DAT): 70%
inhibition at 50 g/ha (Sorghum halepense [3]; 192 h, 8 DAT): 65%
inhibition at 50 g/ha (Sorghum halepense [3]; 480 h, 20 DAT): 90%
observed activity in % destruction (Matricaria inermis [4]; 12.5 g ai/ha, Table 3): 0%
observed activity in % destruction (Matricaria inermis [4]; 25 g ai/ha, Table 3): 0%
observed activity in % destruction (Matricaria inermis [4]; 25 g ai/ha, Table 4): 0%
inhibition at 25 g/ha (Setaria faberii [5]; 192 h, 8 DAT): 85%
inhibition at 50 g/ha (Setaria faberii [5]; 192 h, 8 DAT): 90%
inhibition at 25 g/ha (Setaria faberii [5]; 480 h, 20 DAT): 98%
inhibition at 50 g/ha (Setaria faberii [5]; 480 h, 20 DAT): 98%
inhibition at 25 g/ha (Chenopodium album [6]; 192 h, 8 DAT): 65%
inhibition at 50 g/ha (Chenopodium album [6]; 192 h, 8 DAT): 70%
inhibition at 25 g/ha (Chenopodium album [6]; 480 h, 20 DAT): 95%
inhibition at 50 g/ha (Chenopodium album [6]; 480 h, 20 DAT): 98%
post-emergence activity (harmful plants): poor
inhibition at 25 g/ha (Ambrosia artemisifolia; 192 h, 8 DAT): 40%
inhibition at 50 g/ha (Ambrosia artemisifolia; 192 h, 8 DAT): 50%
inhibition at 25 g/ha (Ambrosia artemisifolia; 480 h, 20 DAT): 65%
inhibition at 50 g/ha (Ambrosia artemisifolia; 480 h, 20 DAT): 80%
observed activity in % destruction (Setaria faberii [7]; Table 3): 85%
observed activity in % destruction (Setaria faberii [7]; Table 4): 85%
inhibition at 25 g/ha (Bromus inermis; 192 h, 8 DAT): 60%
inhibition at 25 g/ha (Bromus inermis; 480 h, 20 DAT): 75%
inhibition at 25 g/ha (Ipomoea purpurea; 192 h, 8 DAT): 40%
inhibition at 50 g/ha (Ipomoea purpurea; 192 h, 8 DAT): 65%
inhibition at 25 g/ha (Ipomoea purpurea; 480 h, 20 DAT): 50%
inhibition at 50 g/ha (Ipomoea purpurea; 480 h, 20 DAT): 90%
inhibition at 25 g/ha (Matricaria inermis [8]; 192 h, 8 DAT): 0%
inhibition at 50 g/ha (Matricaria inermis [8]; 192 h, 8 DAT): 20%
inhibition at 25 g/ha (Matricaria inermis [8]; 480 h, 20 DAT): 60%
inhibition at 50 g/ha (Matricaria inermis [8]; 480 h, 20 DAT): 85%
